Measurements taken from patent publication US11970494B2, “6-heteroaryloxy benzimidazoles and azabenzimidazoles as JAK2 inhibitors” (Ajax Therapeutics, Inc., priority 2021, dated 2024).
Converted amounts (≈) assume the structure as drawn. Read-outs that look alike come from different tables or passages of the source.

Key:
[1] = target: T1, JAK2 (JH1 domain-catalytic, Y1007F,Y1008F) kinase (Homo sapiens, UniProt O60674, Y1007F/Y1008F); test: JAK2 Binding Assay (JAK2 JH1 Domain Binding Assay); settings: JAK2 JH1 domain binding, qPCR detection; read-out: JAK2 Kd
T1 construct: made in house; host or cells: transiently transfected HEK293 cells
T1 sequence (O60674 849-1124 Y1007F/Y1008F limits assumed): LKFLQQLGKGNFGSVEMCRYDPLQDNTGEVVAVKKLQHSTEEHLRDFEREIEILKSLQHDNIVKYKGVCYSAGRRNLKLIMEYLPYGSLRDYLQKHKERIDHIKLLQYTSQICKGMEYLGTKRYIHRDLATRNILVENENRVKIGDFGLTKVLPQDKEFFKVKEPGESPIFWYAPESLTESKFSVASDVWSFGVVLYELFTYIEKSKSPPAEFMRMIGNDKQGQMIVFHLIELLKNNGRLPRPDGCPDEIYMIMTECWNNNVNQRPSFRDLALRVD

JAK1 = target: T2, JAK1 (Homo sapiens, UniProt P23458); test: JAK Family Selectivity Assay: JAK1 vs JAK2 binding affinity; settings: Kd JAK1 over Kd JAK2
T2 construct: made in house; host or cells: T7 phage in BL21-derived E. coli or HEK-293 cells
T2 sequence (P23458 whole entry): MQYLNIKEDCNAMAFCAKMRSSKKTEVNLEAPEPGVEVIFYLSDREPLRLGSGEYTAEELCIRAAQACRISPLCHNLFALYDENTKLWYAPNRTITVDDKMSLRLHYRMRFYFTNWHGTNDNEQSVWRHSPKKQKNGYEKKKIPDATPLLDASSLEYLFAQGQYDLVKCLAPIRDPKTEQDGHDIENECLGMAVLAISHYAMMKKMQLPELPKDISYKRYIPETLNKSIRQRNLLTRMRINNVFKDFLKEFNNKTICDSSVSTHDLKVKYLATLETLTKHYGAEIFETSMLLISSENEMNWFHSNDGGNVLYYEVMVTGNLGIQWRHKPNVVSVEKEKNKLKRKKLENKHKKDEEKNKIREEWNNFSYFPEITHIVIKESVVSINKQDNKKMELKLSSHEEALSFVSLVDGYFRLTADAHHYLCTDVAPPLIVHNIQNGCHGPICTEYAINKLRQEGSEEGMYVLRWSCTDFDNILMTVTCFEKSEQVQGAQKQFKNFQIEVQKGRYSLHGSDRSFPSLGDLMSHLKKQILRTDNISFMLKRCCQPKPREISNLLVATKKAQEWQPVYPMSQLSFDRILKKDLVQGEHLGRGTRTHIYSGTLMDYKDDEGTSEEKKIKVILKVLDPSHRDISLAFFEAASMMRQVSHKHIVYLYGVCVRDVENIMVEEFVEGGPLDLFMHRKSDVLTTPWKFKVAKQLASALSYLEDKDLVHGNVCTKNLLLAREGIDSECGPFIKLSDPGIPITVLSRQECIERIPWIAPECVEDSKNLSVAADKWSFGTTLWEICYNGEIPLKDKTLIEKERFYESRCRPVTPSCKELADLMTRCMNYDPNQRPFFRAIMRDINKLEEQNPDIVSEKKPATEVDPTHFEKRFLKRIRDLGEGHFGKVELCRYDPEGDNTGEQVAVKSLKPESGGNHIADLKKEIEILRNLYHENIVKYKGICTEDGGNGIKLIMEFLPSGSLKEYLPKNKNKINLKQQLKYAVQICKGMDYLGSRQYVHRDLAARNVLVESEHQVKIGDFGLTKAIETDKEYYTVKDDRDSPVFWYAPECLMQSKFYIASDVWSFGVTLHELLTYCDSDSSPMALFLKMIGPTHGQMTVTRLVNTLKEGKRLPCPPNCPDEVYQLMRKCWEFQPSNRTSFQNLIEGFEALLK
Description: Provided compounds are evaluated for selectivity by comparing their JAK2 binding affinity (Kd) in the above JAK2 Binding Assay with their binding affinity (Kd) for one or more other kinases. Binding affinity for other kinases is determined as follows: Kinase-tagged T7 phage strains are prepared in an E. coli host derived from the BL21 strain. E. coli are grown to log-phase and infected with T7 phage and incubated with shaking at 32° C. until lysis. The lysates are centrifuged and filtered to remove cell debris. The remaining kinases are produced in HEK-293 cells and subsequently tagged with DNA for qPCR detection. Streptavidin-coated magnetic beads are treated with biotinylated small molecule ligands for 30 minutes at room temperature to generate affinity resins for kinase assays. The liganded beads are blocked with excess biotin and washed with blocking buffer (SeaBlock (Pierce), 1% BSA, 0.05% Tween 20, 1 mM DTT) to remove unbound ligand and to reduce non-specific binding. Binding reactions are assembled by combining kinases, liganded affinity beads, and test compounds in 1× binding buffer (20% SeaBlock, 0.17×PBS, 0.05% Tween 20, 6 mM DTT). Test compounds are prepared as 111× stocks in 100% DMSO. Kds are determined using an 11-point 3-fold compound dilution series with three DMSO control points. All compounds for Kd measurements are distributed by acoustic transfer (non-contact dispensing) in 100% DMSO. The compounds are then diluted directly into the assays such that the final concentration of DMSO is 0.9%. All reactions are performed in polypropylene 384-well plate. Each has a final volume of 0.02 ml. The assay plates are incubated at room temperature with shaking for 1 hour and the affinity beads are washed with wash buffer (1×PBS, 0.05% Tween 20). The beads are then re-suspended in elution buffer (1× PBS, 0.05% Tween 20, 0.5 μM non-biotinylated affinity ligand) and incubated at room temperature with shaking for 30 minutes. The kinase concentration in the eluates is measured by qPCR. […] In some embodiments, provided compounds may be JAK2-selective over one or more of the following kinases: JAK1, JAK3, and Tyk2.

[2] = system: JAK2-mediated pSTAT5 signaling in constitutively active essential thrombocytopenia cells carrying the V617F mutation; test: SET2-pSTAT5 Cellular Assay; format: cell-based; settings: Homo sapiens
Description: This assay measures inhibition of JAK2-mediated pSTAT5 signaling in constitutively active essential thrombocytopenia cells carrying the V617F mutation. Cells are harvested from a flask into cell culture medium, and the number of cells is counted. The cells are diluted with culture medium and 100 μL of cell suspension (50000/well) is added into each well of a 96-well cell culture plate. A solution of test compound is added to the assay plate. The plates are covered with a lid and placed in a 37° C. 5% CO2 incubator for 4 hours. After 4 hours, the cells are spun, and the cell pellets are re-suspended with 100 μL cold PBS. Then, the cells are spun again at 4° C. and 4000 rpm for 5 min. PBS is aspirated, and 25 μL lysis buffer (with protease and phosphatase inhibitor cocktail) is added to each cell pellet. The cell lysate is shaken at 4° C. for 20 min to fully lyse the cells. The cell lysate is spun at 4° C. and 4000 rpm for 15 min, and then the supernatant is transferred into a new plate and stored at −80° C. Meso-scale discovery (MSD) is used to analyze plates as follows: a standard MSD plate is coated with capture antibody in PBS (40 μL/well) and is incubated at 4° C. overnight with shaking. The MSD plate is washed three times with 150 μL/well of 1×MSD Wash Buffer (Tris-buffered saline with 0.1% Tween® 20 detergent, TBST). The MSD plates are then blocked with 150 μL of blocking buffer (5% BSA in TBST) and shaken for 1 h at room temperature and 600 rpm. The MSD plate is washed three times with 150 μL/well of 1×MSD Wash Buffer (TBST). Sample lysates are then added to MSD plates (25 μL/well) and shaken for 1 h at room temperature and 600 rpm. The MSD plate is washed three times with 150 μL/well of 1×MSD Wash Buffer (TBST). Detection antibody (prepared in Antibody Detection buffer, 1% BSA in 1×TBST) is then added to the MSD plates, and they are shaken for 1 h at room temperature and 600 rpm. The MSD plate is washed three times with 150 μL/well of 1×MSD Wash Buffer (TBST). A secondary detection antibody (prepared in Antibody Detection buffer, 1% BSA in 1×TBST) is then added to the MSD plates, and they are shaken for 1 h at room temperature and 600 rpm. The MSD plate is washed three times with 150 μL/well of 1×MSD Wash Buffer (TBST). MSD reading buffer (1×) is added to the plates (150 μL/well), and they are diluted from 4× with water. The plates are imaged using an MSD imaging instrument according to the manufacturer's instructions.

Kinetic Solubility Assay = format: physicochemical; settings: aqueous buffer, kinetic from dmso stock, kinetic solubility in PBS (pH 4.0 and pH 7.4 in method; pH of table values not stated), RT
Description: Stock solutions of test compounds are prepared in DMSO at the concentration of 10 mM, and a stock solution of control compound is prepared in DMSO at the concentration of 30 mM. Diclofenac is used as positive control in the assay. 30 μL stock solution of each compound is placed into their a 96-well rack, followed by adding 970 μL of PBS at pH 4.0 and pH 7.4 into each vial of the cap-less solubility sample plate. This study is performed in duplicate. One stir stick is added to each vial and then vials are sealed using a molded PTDE/SIL 96-Well Plate Cover. The solubility sample plate is transferred to the Thermomixer comfort plate shaker and incubated at RT for 2 hours with shaking at 1100 rpm. After 2 hours incubation, stir sticks are removed using a big magnet and all samples from the solubility sample plate are transferred into the filter plate. All the samples are filtered by vacuum manifold. The filtered samples are diluted with methanol. Samples are analyzed by LC-MS/MS and quantified against a standard of known concentration in DMSO using LC coupled with Mass spectral peak identification and quantitation. The solubility values of the test compounds are calculated as follows, wherein INJ VOL is injection volume, DF is dilution factor, and STD is standard: […]

[3] = SET-2, SET2 cells, pSTAT5, 4 hours, MSD, read-out: IC50

| SMILES | Kd [1] [nM] | JAK1/JAK2 Kd/Kd ratio (JAK1) | IC50 ([2]; SET-2, 4 h) [nM] | solubility at 2 h (Kinetic Solubility Assay) [µM] | IC50 [2, 3] [nM] |
| --- | --- | --- | --- | --- | --- |
| COC(=O)Nc1cc(Oc2cnc3nc(Nc4cc(C(F)(F)F)cn(C)c4=O)n(C)c3c2C#N)ccn1 [Example I-3, Methyl (4-((7-cyano-1-methyl-2-((1-methyl-2-oxo-5-(trifluoromethyl)-1,2-dihydropyridin-3-yl)amino)-1H-imidazo[4,5-b]pyridin-6-yl)oxy)pyridin-2-yl)carbamate] | < 10 | A (Kd/Kd ratio ≥1000) | < 125 | 0.1 to 9 (≈ 0.0514 to 4.63 µg/mL) | – |
| CN(C)C(=O)Nc1cc(Oc2cnc3nc(Nc4cc(C(F)(F)F)cn(C)c4=O)n(C)c3c2C#N)ccn1 [Example I-4, 3-(4-((7-cyano-1-methyl-2-((1-methyl-2-oxo-5-(trifluoromethyl)-1,2-dihydropyridin-3-yl)amino)-1H-imidazo[4,5-b]pyridin-6-yl)oxy)pyridin-2-yl)-1,1-dimethylurea] | < 10 | B (Kd/Kd ratio <1000 and ≥300) | < 125 | 9 to 100 (≈ 4.75 to 52.7 µg/mL) | – |
| Cn1cc(C(F)(F)F)cc(Nc2nc3ncc(Oc4ccnc(NC(=O)N5CCC5)c4)c(C#N)c3n2C)c1=O [Example I-7, N-(4-((7-cyano-1-methyl-2-((1-methyl-2-oxo-5-(trifluoromethyl)-1,2-dihydropyridin-3-yl)amino)-1H-imidazo[4,5-b]pyridin-6-yl)oxy)pyridin-2-yl)azetidine-1-carboxamide] | < 10 | A (Kd/Kd ratio ≥1000) | – | 0.1 to 9 (≈ 0.0539 to 4.86 µg/mL) | < 125 |
| CO[C@H]1CCN(C(=O)Nc2cc(Oc3cnc4nc(Nc5cc(C(F)(F)F)cn(C)c5=O)n(C)c4c3C#N)ccn2)C1 [Example I-14, (S)-N-(4-((7-cyano-1-methyl-2-((1-methyl-2-oxo-5-(trifluoromethyl)-1,2-dihydropyridin-3-yl)amino)-1H-imidazo[4,5-b]pyridin-6-yl)oxy)pyridin-2-yl)-3-methoxypyrrolidine-1-carboxamide] | < 10 | A (Kd/Kd ratio ≥1000) | – | 0.1 to 9 (≈ 0.0584 to 5.25 µg/mL) | < 125 |
| Cn1cc(C(F)(F)F)cc(Nc2nc3ncc(Oc4ccnc(NC(=O)OCCN5CCOCC5)c4)c(C#N)c3n2C)c1=O [Example I-15, 2-Morpholinoethyl(4-((7-cyano-1-methyl-2-((1-methyl-2-oxo-5-(trifluoromethyl)-1,2-dihydropyridin-3-yl)amino)-1H-imidazo[4,5-b]pyridin-6-yl)oxy)pyridin-2-yl)carbamate] | < 10 | B (Kd/Kd ratio <1000 and ≥300) | – | 9 to 100 (≈ 5.52 to 61.4 µg/mL) | < 125 |
| COC1CN(C(=O)Nc2cc(Oc3cnc4nc(Nc5cc6n(n5)CCCC6(F)F)n(C)c4c3C#N)ccn2)C1 [Example I-26, N-(4-((7-cyano-2-((4,4-difluoro-4,5,6,7-tetrahydropyrazolo[1,5-a]pyridin-2-yl)amino)-1-methyl-1H-imidazo[4,5-b]pyridin-6-yl)oxy)pyridin-2-yl)-3-methoxyazetidine-1-carboxamide] | < 10 | – | – | 9 to 100 (≈ 4.95 to 55.1 µg/mL) | 200 to 1000 |
| Cn1c(Nc2cc3n(n2)CCOC3(C)C)nc2ncc(Oc3ccnc(NC(=O)O[C@@H]4CCOC4)c3)c(C#N)c21 [Example I-48, (R)-Tetrahydrofuran-3-yl(4-((7-cyano-2-((4,4-dimethyl-6,7-dihydro-4H-pyrazolo[5,1-c][1,4]oxazin-2-yl)amino)-1-methyl-1H-imidazo[4,5-b]pyridin-6-yl)oxy)pyridin-2-yl)carbamate] | < 10 | – | – | 0.1 to 9 (≈ 0.0546 to 4.91 µg/mL) | 1000 to 5000 |
| CN(C)C(=O)Nc1cc(Oc2cnc3nc(Nc4cc5n(n4)CCC54CCC4)n(C)c3c2C#N)ccn1 [Example I-56, 3-(4-((7-cyano-2-((5′,6′-dihydrospiro[cyclobutane-1,4′-pyrrolo[1,2-b]pyrazol]-2′-yl)amino)-1-methyl-1H-imidazo[4,5-b]pyridin-6-yl)oxy)pyridin-2-yl)-1,1-dimethylurea] | < 10 | – | 125 to 200 | 9 to 100 (≈ 4.49 to 49.9 µg/mL) | – |
| COC(=O)Nc1cc(Oc2cnc3nc(Nc4cc5n(n4)CCC54CCC4)n(C)c3c2C#N)ccn1 [Example I-57, methyl(4-((7-cyano-2-((5′,6′-dihydrospiro[cyclobutane-1,4′-pyrrolo[1,2-b]pyrazol]-2′-yl)amino)-1-methyl-1H-imidazo[4,5-b]pyridin-6-yl)oxy)pyridin-2-yl)carbamate] | < 10 | – | 125 to 200 | 0.1 to 9 (≈ 0.0486 to 4.37 µg/mL) | – |
| CC(=O)Nc1cc(Oc2cnc3nc(Nc4cc5n(n4)CCCC54CC4)n(C)c3c2C#N)ccn1 [Example I-114, N-(4-((7-cyano-2-((6′,7′-dihydro-5′H-spiro[cyclopropane-1,4′-pyrazolo[1,5-a]pyridin]-2′-yl)amino)-1-methyl-1H-imidazo[4,5-b]pyridin-6-yl)oxy)pyridin-2-yl)acetamide] | < 10 | – | – | 9 to 100 (≈ 4.23 to 47 µg/mL) | 200 to 1000 |
| CC(=O)Nc1cc(Oc2cnc3nc(Nc4cc5n(n4)CCOCC5(C)C)n(C)c3c2C#N)ccn1 [Example I-118, N-(4-((7-cyano-2-((4,4-dimethyl-4,5,7,8-tetrahydropyrazolo[1,5-d][1,4]oxazepin-2-yl)amino)-1-methyl-1H-imidazo[4,5-b]pyridin-6-yl)oxy)pyridin-2-yl)acetamide] | < 10 | – | – | 9 to 100 (≈ 4.39 to 48.8 µg/mL) | 200 to 1000 |
